Measured values: ChEMBL document CHEMBL1201862, “PubChem BioAssay data set” (2004)
Activity calls are given as the source filed them.

Experiments:
Leucine aminopeptidase = biological target: T1, Leucine aminopeptidase (Plasmodium falciparum 3D7, UniProt Q8IL11); assay: P. falciparum M17LAP inhibitors, primary screen, biochemical, fluorogenic H-Leu-NHMec substrate, 1536-well (AID 1619); type: functional
T1 sequence (Q8IL11 whole entry): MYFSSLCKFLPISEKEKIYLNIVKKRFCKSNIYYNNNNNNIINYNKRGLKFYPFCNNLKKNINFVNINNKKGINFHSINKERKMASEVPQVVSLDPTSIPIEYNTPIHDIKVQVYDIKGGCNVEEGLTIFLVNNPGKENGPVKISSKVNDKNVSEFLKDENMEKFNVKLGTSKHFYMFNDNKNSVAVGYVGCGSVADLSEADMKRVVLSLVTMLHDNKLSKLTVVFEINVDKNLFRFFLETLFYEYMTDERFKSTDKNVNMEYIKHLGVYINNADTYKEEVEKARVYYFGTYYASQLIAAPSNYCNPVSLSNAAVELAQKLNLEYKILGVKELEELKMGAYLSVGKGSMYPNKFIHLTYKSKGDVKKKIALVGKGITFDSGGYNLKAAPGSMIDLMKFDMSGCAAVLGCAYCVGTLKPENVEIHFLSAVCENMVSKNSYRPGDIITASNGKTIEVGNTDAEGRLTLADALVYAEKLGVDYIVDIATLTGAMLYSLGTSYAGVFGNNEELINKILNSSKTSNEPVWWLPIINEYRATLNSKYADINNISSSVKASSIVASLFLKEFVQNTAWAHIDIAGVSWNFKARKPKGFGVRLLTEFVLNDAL

Large T antigen = Large T antigen (Simian virus 40, UniProt P03070); type: functional, Betapolyomavirus macacae;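 note: Confirmatory-stage PubChem screen for compounds that inhibit SV40 T antigen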
Large T antigen, sequence (P03070 whole entry): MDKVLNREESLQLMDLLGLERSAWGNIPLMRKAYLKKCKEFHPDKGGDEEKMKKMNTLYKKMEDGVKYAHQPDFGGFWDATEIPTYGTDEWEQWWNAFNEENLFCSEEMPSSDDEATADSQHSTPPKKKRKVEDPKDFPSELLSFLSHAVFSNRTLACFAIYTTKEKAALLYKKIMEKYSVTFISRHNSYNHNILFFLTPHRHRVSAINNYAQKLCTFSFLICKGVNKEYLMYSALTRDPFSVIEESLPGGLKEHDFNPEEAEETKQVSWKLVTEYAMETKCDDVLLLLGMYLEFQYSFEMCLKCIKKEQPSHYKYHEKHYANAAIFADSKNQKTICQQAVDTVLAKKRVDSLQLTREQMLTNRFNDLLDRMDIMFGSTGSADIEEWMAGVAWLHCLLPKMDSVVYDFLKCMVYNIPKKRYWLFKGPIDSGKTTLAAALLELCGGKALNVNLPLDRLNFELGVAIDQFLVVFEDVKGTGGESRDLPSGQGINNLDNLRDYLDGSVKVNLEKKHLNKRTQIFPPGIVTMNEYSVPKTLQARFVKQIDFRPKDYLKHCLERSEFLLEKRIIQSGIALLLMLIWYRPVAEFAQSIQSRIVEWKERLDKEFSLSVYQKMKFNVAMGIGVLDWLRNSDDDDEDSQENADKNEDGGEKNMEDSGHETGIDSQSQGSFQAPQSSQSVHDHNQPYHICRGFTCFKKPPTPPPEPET

[1] = biological target: Alkaline phosphatase, placental type (Homo sapiens, UniProt P05187); assay: PLAP enzyme inhibitors, confirmation, biochemical, luminescence (AID 1512); type: functional
Alkaline phosphatase, placental type, sequence (P05187 whole entry): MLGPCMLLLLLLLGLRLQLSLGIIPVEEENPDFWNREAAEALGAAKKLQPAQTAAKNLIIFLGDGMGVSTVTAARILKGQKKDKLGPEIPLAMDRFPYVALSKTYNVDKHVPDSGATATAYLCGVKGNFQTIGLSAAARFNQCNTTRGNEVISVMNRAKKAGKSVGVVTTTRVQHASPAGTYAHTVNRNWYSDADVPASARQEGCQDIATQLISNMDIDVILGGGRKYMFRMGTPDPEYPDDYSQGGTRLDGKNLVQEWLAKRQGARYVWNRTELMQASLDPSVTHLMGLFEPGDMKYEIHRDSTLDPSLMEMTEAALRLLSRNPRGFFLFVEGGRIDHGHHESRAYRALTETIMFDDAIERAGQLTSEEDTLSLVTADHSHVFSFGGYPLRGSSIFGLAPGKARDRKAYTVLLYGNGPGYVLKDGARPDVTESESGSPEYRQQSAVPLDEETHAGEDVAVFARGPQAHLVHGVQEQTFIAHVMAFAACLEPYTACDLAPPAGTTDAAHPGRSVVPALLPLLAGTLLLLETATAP

[2] = biological target: T2, Alkaline phosphatase, tissue-nonspecific isozyme (Homo sapiens, UniProt P05186); assay: human TNAP enzyme inhibitors, SAR follow-up, biochemical, luminescent, dose response (AID 1056)
T2 sequence (P05186 whole entry): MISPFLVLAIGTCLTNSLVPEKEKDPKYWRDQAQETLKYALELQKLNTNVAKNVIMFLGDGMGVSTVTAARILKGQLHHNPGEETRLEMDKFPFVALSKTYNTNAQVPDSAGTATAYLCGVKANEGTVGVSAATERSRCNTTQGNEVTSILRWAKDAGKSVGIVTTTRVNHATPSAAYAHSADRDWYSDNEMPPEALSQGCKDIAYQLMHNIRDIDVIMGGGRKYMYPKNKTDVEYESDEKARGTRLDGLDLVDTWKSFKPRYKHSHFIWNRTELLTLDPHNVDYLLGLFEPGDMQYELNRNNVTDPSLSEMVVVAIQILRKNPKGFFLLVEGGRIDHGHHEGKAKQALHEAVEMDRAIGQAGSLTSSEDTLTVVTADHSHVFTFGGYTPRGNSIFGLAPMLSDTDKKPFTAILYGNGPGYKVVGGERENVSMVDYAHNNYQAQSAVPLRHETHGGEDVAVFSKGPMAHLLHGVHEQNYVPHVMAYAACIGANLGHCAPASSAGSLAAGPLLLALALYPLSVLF

[3] = biological target: T3, DNA dC->dU-editing enzyme APOBEC-3A (Homo sapiens, UniProt P31941); assay: Dose Response confirmation of small molecule APOBEC3A DNA Deaminase Inhibitors via a fluorescence-based single-stranded DNA deaminase assay. [Related pubchem assays (depositor defined):AID493011, AID493024]; type: functional
T3 sequence (P31941 whole entry): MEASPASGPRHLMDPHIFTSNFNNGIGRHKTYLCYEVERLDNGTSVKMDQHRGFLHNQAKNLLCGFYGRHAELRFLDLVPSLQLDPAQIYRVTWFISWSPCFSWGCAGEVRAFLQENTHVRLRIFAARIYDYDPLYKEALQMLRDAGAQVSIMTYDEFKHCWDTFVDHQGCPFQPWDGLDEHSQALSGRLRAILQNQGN

[4] = biological target: T4, DNA dC->dU-editing enzyme APOBEC-3G (Homo sapiens, UniProt Q9HC16); type: functional
T4 sequence (Q9HC16 whole entry): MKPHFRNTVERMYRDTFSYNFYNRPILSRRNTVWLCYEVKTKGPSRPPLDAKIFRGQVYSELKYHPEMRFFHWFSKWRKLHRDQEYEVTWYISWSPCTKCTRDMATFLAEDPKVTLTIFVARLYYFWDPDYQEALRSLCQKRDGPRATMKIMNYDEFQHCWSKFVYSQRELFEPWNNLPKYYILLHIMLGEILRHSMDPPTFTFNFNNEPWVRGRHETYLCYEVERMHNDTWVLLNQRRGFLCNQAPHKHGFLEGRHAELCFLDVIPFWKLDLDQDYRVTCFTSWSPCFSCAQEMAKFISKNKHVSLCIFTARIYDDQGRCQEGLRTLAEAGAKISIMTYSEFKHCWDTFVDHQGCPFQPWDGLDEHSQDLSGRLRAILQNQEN

Ion channel NompC = Ion channel NompC (Danio rerio, UniProt Q7T1G6); assay: Dose response cell-based high-throughput screening assay for agonists of the transient receptor potential channel N1 (TRPN1). [Related pubchem assays (depositor defined):AID1424, AID1448]; type: functional
Ion channel NompC, sequence (Q7T1G6 whole entry): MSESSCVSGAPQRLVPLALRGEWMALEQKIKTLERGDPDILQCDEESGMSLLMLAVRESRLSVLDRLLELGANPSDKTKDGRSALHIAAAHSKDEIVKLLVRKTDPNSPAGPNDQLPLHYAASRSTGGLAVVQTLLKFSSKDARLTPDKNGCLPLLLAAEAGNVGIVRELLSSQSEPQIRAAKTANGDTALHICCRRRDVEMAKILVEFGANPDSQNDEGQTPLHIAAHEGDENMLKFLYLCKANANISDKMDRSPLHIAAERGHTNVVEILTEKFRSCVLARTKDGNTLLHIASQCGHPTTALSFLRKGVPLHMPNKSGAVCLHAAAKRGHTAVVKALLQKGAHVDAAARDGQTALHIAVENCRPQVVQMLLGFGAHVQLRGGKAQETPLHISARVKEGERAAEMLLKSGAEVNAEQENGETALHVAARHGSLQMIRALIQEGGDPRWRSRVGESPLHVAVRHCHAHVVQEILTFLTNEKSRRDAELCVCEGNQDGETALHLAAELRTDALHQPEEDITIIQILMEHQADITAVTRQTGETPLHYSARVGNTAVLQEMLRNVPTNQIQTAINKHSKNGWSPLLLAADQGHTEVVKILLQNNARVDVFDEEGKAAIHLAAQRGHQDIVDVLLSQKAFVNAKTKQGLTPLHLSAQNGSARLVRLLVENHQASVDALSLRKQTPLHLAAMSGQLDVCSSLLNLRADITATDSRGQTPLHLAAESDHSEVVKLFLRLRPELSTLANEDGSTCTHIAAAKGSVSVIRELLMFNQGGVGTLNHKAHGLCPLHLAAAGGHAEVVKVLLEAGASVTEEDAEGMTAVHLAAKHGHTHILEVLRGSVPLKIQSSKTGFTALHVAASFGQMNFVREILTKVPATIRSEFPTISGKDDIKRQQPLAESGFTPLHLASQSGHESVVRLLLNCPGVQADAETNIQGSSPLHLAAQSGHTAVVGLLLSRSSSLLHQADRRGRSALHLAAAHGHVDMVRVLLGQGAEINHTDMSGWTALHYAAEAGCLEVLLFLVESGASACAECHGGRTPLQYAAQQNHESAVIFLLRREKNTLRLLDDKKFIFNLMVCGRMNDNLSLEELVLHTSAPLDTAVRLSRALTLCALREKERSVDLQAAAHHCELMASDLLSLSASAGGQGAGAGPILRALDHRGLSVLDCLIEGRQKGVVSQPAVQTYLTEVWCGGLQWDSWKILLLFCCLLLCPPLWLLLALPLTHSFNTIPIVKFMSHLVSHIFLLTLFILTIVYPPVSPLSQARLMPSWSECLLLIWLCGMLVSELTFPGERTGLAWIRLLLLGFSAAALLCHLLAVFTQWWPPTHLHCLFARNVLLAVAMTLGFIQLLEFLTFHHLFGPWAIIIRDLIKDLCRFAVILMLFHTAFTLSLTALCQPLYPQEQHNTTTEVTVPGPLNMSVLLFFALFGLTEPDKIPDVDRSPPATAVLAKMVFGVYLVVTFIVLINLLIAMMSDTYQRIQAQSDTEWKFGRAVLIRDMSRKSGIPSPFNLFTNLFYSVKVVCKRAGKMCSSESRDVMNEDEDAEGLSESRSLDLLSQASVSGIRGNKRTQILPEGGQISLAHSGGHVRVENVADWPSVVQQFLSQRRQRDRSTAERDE

[5] = growth suppression of PTEN-null colon cells, dose response, cell-based, HCT116 PTEN knockout (AID 1047); type: functional;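 note: HCT116 colon tumor cells with PTEN knocked out; cells exposed to compound for 60 hours before readout; potency for loss of cell viability measured by luminescence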
Mucolipin-3 = biological target: T5, Mucolipin-3 (Homo sapiens, UniProt Q8TDD5); assay: Fluorescence counterscreen assay for […] agonists: dose response cell-based high-throughput screening assay to identify agonists of the transient receptor potential channel ML3 (TRPML3). [Related pubchem assays: 1424, 1448 ]; type: functional
T5 sequence (Q8TDD5 whole entry): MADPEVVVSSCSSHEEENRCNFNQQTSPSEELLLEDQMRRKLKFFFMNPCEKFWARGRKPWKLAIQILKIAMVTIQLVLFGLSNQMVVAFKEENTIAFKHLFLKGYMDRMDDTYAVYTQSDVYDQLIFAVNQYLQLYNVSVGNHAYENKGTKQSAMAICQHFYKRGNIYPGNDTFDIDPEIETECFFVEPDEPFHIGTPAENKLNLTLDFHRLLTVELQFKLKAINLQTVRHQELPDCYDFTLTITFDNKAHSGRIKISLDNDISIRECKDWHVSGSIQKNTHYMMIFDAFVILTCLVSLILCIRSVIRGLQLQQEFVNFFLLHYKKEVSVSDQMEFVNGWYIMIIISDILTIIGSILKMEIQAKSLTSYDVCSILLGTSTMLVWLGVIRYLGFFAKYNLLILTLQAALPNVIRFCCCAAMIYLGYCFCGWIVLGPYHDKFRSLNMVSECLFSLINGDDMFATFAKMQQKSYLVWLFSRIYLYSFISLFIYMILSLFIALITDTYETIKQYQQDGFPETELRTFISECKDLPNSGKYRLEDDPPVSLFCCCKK

[6] = growth suppression of beta-catenin-knockout colon cells, dose response, cell-based, HCT116, human colon tumor (AID 1045); type: functional;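 note: HCT116 colon tumor cells with beta catenin knocked out; cells exposed to compound for 60 hours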
Cytochrome P450 2C19 = Cytochrome P450 2C19 (Homo sapiens, UniProt P33261); assay: Cytochrome panel assay with activity outcomes. Panel member name: p450-cyp2c19 Compounds with AC50 equal or less than 10 uM are considered active; type: functional; conditions: read-out: AC50
Cytochrome P450 2C19, sequence (P33261 whole entry): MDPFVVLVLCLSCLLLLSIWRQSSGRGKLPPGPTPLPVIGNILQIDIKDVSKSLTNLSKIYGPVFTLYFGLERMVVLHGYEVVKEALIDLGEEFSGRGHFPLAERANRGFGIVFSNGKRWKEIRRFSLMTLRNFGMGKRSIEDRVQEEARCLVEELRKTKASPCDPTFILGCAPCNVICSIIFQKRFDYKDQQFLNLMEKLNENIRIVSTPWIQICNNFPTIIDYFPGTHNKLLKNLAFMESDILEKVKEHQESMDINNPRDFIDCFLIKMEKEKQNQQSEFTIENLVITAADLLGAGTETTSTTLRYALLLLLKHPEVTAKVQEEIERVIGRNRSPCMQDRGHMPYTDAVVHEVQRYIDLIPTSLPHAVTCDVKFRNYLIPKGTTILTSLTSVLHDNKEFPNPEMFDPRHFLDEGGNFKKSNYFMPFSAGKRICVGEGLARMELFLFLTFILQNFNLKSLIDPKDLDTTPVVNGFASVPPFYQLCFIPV

[7] = biological target: T3, DNA dC->dU-editing enzyme APOBEC-3A; assay: APOBEC3A DNA deaminase inhibitors, dose response, biochemical (AID 504722); type: functional
[8] = biological target: T4, DNA dC->dU-editing enzyme APOBEC-3G; assay: Dose Response confirmation of small molecule APOBEC3G DNA Deaminase Inhibitors via a fluorescence-based single-stranded DNA deaminase assay. [Related pubchem assays (depositor defined):AID493012, AID493028]; type: functional
[9] = biological target: T6, Corticotropin-releasing factor receptor 2/Corticotropin-releasing factor-binding protein (Homo sapiens, UniProt P24387+Q13324); assay: activators of CRF receptor 2 with binding protein – uHTS hits, confirmation (AID 602473); type: functional; conditions: read-out: EC50_Mean
T6 sequence (Q13324 whole entry): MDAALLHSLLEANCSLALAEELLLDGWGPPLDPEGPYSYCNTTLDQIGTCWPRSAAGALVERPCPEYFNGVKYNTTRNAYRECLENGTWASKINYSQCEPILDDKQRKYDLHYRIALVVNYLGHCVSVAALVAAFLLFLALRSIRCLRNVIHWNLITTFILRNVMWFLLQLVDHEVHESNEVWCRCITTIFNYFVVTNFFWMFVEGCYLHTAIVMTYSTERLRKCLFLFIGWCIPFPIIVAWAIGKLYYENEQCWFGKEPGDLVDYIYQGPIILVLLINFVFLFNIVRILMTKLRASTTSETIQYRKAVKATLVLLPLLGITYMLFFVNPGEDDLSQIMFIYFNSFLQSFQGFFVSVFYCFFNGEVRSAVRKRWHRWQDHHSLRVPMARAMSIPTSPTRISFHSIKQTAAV
T6 sequence (P24387 whole entry): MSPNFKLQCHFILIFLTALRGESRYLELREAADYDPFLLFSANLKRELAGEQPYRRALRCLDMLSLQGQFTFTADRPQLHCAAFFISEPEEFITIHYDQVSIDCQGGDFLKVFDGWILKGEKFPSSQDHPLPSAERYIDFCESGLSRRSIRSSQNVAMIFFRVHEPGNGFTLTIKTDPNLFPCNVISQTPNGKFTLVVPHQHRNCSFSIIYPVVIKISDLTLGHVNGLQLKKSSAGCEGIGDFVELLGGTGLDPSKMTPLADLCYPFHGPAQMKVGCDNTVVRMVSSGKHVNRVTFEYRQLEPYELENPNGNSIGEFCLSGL

HEK293 [10] = assay: NOD1 signaling inhibitors, primary screen, cell-based, luminescence, uHTS (AID 1578); type: functional; conditions: Homo sapiens
HEK293 [11] = assay: cells; type: functional, cell-based; conditions: Homo sapiens
HEK293 [12] = assay: cells; type: functional, cell-based; conditions: Homo sapiens; remark: listed apart in the source
[13] = biological target: Nucleotide-binding oligomerization domain-containing protein 2 (Homo sapiens, UniProt Q9HC29); assay: NOD2 signaling inhibitors, cell-based, luminescence, uHTS, HEK293 (AID 1566); type: functional
Nucleotide-binding oligomerization domain-containing protein 2, sequence (Q9HC29 whole entry, the tested form may be a part): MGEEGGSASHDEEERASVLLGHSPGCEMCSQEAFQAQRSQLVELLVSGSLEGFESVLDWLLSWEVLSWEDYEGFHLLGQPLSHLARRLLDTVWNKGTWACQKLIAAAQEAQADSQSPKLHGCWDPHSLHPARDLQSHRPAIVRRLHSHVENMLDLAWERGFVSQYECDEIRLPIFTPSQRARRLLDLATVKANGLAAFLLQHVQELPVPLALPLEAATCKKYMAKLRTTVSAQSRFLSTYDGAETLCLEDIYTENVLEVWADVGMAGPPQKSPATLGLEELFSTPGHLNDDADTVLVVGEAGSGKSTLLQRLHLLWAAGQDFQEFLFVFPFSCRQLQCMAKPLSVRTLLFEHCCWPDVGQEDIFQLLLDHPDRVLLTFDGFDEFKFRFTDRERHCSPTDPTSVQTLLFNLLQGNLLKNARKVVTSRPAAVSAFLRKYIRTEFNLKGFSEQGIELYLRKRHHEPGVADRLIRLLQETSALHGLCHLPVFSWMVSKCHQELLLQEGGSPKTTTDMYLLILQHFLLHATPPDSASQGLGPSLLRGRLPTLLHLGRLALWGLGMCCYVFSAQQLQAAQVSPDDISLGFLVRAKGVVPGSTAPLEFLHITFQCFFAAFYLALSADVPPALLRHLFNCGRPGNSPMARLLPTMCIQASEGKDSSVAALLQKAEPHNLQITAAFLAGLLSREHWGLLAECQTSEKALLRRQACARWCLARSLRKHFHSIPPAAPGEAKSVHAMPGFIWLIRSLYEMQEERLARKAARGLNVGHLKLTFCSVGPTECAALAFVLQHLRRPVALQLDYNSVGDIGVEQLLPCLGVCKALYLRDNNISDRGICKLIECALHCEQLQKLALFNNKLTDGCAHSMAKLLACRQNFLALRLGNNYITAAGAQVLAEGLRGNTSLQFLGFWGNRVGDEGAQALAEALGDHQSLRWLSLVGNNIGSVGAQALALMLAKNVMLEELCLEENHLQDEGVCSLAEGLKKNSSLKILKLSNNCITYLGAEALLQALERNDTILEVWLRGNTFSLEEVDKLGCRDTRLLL

HEK293 [14] = assay: NOD2 signaling inhibitors in MDP-stimulated cells, cell-based, uHTS, luminescence (AID 2001); type: functional; conditions: Homo sapiens
HEK293 [15] = assay: cells; type: functional, cell-based; conditions: Homo sapiens; remark: listed apart in the source
Tumor necrosis factor = Tumor necrosis factor (Homo sapiens, UniProt P01375); assay: TNFa-triggered NF-kB activation inhibitors, SAR follow-up, cell-based, revised (AID 2337); type: functional
[16] = biological target: T7, Nucleotide-binding oligomerization domain-containing protein 1 (Homo sapiens, UniProt Q9Y239); assay: NOD1 signaling inhibitors, SAR follow-up, revised (AID 2333); type: functional
T7 sequence (Q9Y239 whole entry): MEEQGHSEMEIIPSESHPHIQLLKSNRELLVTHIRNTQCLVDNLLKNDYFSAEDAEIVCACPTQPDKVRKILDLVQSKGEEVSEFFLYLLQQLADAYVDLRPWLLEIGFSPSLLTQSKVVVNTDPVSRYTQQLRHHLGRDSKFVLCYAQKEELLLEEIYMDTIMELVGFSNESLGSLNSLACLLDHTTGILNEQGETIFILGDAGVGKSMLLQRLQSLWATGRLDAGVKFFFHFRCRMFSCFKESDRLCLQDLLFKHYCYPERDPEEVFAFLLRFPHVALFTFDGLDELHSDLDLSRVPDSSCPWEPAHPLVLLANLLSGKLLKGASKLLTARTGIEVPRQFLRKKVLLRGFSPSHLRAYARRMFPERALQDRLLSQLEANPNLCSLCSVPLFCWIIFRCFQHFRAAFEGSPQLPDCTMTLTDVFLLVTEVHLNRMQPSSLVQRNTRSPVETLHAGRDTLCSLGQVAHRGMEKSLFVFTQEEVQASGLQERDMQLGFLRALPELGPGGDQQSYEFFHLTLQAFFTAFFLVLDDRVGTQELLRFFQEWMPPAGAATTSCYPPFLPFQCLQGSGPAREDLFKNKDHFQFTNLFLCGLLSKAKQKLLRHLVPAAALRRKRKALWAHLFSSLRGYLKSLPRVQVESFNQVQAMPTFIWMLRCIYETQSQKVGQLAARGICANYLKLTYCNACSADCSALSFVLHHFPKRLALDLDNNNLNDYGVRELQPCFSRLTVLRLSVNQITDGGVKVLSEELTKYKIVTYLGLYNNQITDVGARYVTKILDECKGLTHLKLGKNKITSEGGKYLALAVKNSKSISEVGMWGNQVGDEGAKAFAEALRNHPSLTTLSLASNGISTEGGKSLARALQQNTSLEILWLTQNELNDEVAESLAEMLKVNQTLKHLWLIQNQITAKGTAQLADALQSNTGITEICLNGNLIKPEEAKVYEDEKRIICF

[17] = Shn3 3'UTR reporter inhibitors, dose response, cell-based, Clone20 osteoblasts, firefly luciferase, cherry-picked (AID 624132); type: functional;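 note: firefly luciferase luminescence from reporter carrying the Shn3 3'UTR in osteoblasts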
[18] = HepG2 cell cytotoxicity, dose response, cytotoxicity control for Shn3 inhibitor project, CellTiter-Glo, cherry-picked (AID 624134); type: functional, cell-based
[19] = control 3'UTR Renilla luciferase suppression, dose response, counter-screen for Shn3 inhibitor project, cell-based, Clone20-Shn3RL, cherry-picked (AID 624133); type: functional
HEK293 [20] = assay: cells; conditions: Homo sapiens

Compound: CCn1c(SCC(=O)c2ccc(O)c(O)c2)nnc1-c1ccc(C)cc1
- IC50 (Leucine aminopeptidase): 17.9 µM (active)
- IC50 (Large T antigen): 10.4 µM (active)
- IC50 [1]: 11.8 µM (active)
- IC50 [2]: > 100 µM (inactive)

Compound: COc1ccccc1N(CC(=O)Nc1ccc2c(c1)OCO2)S(=O)(=O)c1ccccc1
- IC50 [3]: 2.01 µM (active)
- IC50 [4]: 1.81 µM (active)

Compound: O=C(Nc1ccccc1)Nc1ccc(F)c([N+](=O)[O-])c1
- EC50 (Ion channel NompC): > 29.9 µM (inactive)
- EC50 [5]: 15.2 µM (active)
- EC50 (Mucolipin-3): > 29.9 µM (not active)
- EC50 [6]: 18.1 µM (active)

Compound: Cc1ccc(C)c(NC(=O)c2nc[nH]n2)c1
- IC50 [3]: 11.6 µM (active)
- IC50 [4]: 14.1 µM (active)
- AC50 (Cytochrome P450 2C19): 39.8 µM (inconclusive)

Compound: COc1ccc(N2C(=O)C[S+]([O-])C(c3ccccc3)C2=O)cc1 (stereo unspecified)
- IC50 [7]: > 100 µM (inactive)
- IC50 [8]: 7.26 µM (active)

Compound: CCCCN1C(=O)/C(=N\Nc2ccccc2C)c2ccccc21
- IC50 [1]: 74.4 µM (active)
- IC50 [2]: 78 µM (active)

Compound: NC(S)=NNC(=O)C12CC3CC(CC(C3)C1)C2
- EC50 (Ion channel NompC): 1.47 µM (active)
- EC50 (Mucolipin-3): 2.76 µM (active)
- EC50 [9]: 3.53 µM (active)

Compound: COc1ccc(Br)cc1CN(C)C(=O)C1=CC=CN2CCS(=O)(=O)N=C12
- IC50 [3]: 20.2 µM (active)
- IC50 [4]: 48.3 µM (active)

Compound: O=C(c1ccc(S(=O)(=O)c2ccccc2Cl)c([N+](=O)[O-])c1)N1CCN(Cc2ccccc2)CC1
- EC50 (HEK293 [10]): 12.9 µM (active)
- IC50 (HEK293 [11]): 4.59 µM (active)
- IC50 (HEK293 [12]): 17.6 µM (active)
- EC50 [13]: 11.8 µM (active)
- IC50 (HEK293 [14]): 5.54 µM (active)
- IC50 (HEK293 [15]): > 20 µM (inactive)
- IC50 (Tumor necrosis factor): 6.58 µM (active)
- IC50 [16]: 3.65 µM (active)
- AC50 [17]: 5.77 µM (active)
- AC50 [18]: 50 µM (active)
- AC50 [19]: 3.48 µM (active)
- IC50 (HEK293 [20]): 15.3 µM (active)

Compound: O=[N+]([O-])c1cccc(/C=N/n2c(S)nnc2COc2ccccc2)c1
- IC50 [7]: > 100 µM (inactive)
- IC50 [8]: 5.51 µM (active)
